Results taken from EP0326331B1, “Substituted quinolines and cinnolines” (Dow AgroSciences LLC, priority 1988, dated 1989).
Read-outs that look alike come from different tables or passages of the source.

Experiments:
Format in all cases: in vivo
[1] = tested on: Erysiphe graminis tritici (powdery mildew); assay: Test 1 greenhouse foliar spray screen, powdery mildew on wheat; details: for pest or weed control at 400 ppm: Blumeria graminis, foliar, Test 1, foliar spray on wheat, disease control rating at 400 ppm / 100 ppm, read-out: POWD MDEW; for POWD MDEW: disease control rating, foliar spray on wheat, 400 ppm (+++ at 100 ppm)
[2] = tested on: Pyricularia oryzae (rice blast); assay: whole plant or invertebrate; details: for pest or weed control at 400 ppm: Pyricularia oryzae, foliar, read-out: RICE BLAST, Test 1, foliar spray on rice, disease control rating at 400 ppm / 100 ppm; for RICE BLAST: disease control rating, foliar spray on rice, 400 ppm (+++ at 100 ppm)
[3] = tested on: Puccinia recondita tritici (leaf rust); assay: Test 1 greenhouse foliar spray screen, leaf rust on wheat; details: for pest or weed control at 400 ppm: Puccinia recondita, foliar, Test 1, foliar spray on wheat, disease control rating at 400 ppm / 100 ppm; for LEAF RUST: disease control rating, foliar spray on wheat, 400 ppm (+++ at 100 ppm)
[4] = tested on: Botrytis cinerea (gray mold); assay: Test 1 greenhouse foliar spray screen, gray mold on grape berries; details: for pest or weed control at 400 ppm: Botrytis cinerea, foliar, Test 1, spray on grape berries, disease control rating at 400 ppm / 100 ppm; for GRAY MOLD: disease control rating, spray on grape berries, 400 ppm (+++ at 100 ppm)
[5] = tested on: Pseudoperonospora cubensis (downy mildew); assay: Test 1 greenhouse foliar spray screen, downy mildew on squash; details: for pest or weed control at 400 ppm: Pseudoperonospora cubensis, foliar, Test 1, foliar spray on squash, disease control rating at 400 ppm / 100 ppm, read-out: DOWN MDEW; for DOWN MDEW: disease control rating, foliar spray on squash, 400 ppm (+++ at 100 ppm)
[6] = tested on: southern armyworm (Spodopetra eridania Cramer); assay: Mite/insect screen, SAW; details: Spodoptera eridania, percent mortality, read-out: SAW RESULTS %
Description: (§1) The compounds of Examples 1-295 were tested for miticidal and insecticidal activity in the following mite/insect screen.
(§2) Each test compound was formulated by dissolving the compound in acetone/alcohol (50:50) mixture containing 23 g of "TOXIMUL R" (sulfonate/nonionic emulsifier blend) and 13 g of "TOXIMUL S" (sulfonate/nonionic emulsifier blend) per liter. These mixtures were then diluted with water to give the indicated concentrations.
(§3) Other plants in the same treatment pot were left uninfested. The leaves were then sprayed with 5 ml of test solution using a DeVilbiss atomizing sprayer at 10 psi. Both surfaces of the leaves were covered until runoff, and then allowed to dry for one hour. Two uninfested leaves were then excised and placed into a Petri dish containing southern armyworm (Spodopetra eridania Cramer).
(§4) After standard exposure periods, percent mortality was evaluated. […]

[7] = tested on: Twospotted spider mites (Tetranychus urticae Koch); assay: Mite/insect screen, SM; details: for mortality at 200 ppm / mortality at 400 ppm: Tetranychus urticae, percent mortality, read-out: SM RESULTS %; for activity as miticides: summary statement in the description
Description: as §1, §2, §3, §4

[8] = tested on: melon aphids (Aphis gossypii Glover); assay: Mite/insect screen, MA; details: Aphis gossypii, percent mortality, read-out: MA RESULTS %
Description: as §1, §2, §3, §4

[9] = tested on: corn rootworm; assay: Mite/insect screen, CRW; details: percent mortality, read-out: CRW RESULTS %
Description: as §1, §2, §4

[10] = foliar, rate 200 ppm, foliar spray on squash
[11] = foliar, rate 400 ppm, foliar spray on squash

Row | SMILES | pest or weed control at 400 ppm [1] | pest or weed control at 400 ppm [2] | pest or weed control at 400 ppm [3] | pest or weed control at 400 ppm [4] | pest or weed control at 400 ppm [5] | mortality at 200 ppm [6, 10] | mortality at 400 ppm [6, 11] | mortality at 200 ppm [7, 10] | mortality at 400 ppm [7, 11] | mortality at 200 ppm [8, 10] | mortality at 400 ppm [8, 11] | mortality at 12 ppm ([9]; CRW rate 12.00 ppm) | mortality at 24 ppm ([9]; CRW rate 24.00 ppm) | further results
1 | Fc1cccc2c(OCCc3ccccc3-c3ccccc3)ccnc12 [Example 237, 8-fluoro-4-[2-(1,1'-biphenyl)-2-yl-ethoxy]quinoline] | 90 to 100% | 90 to 100% | 20 to 89% | 0 to 19% | 0 to 19% | 0% | 0% | 0% | 100% | 0% | 0% | 0% | 0% | activity as miticides [7]: particularly excellent activity
2 | COc1ccc(CCOc2ccnc3c(F)cccc23)cc1 [Example 196, 8-fluoro-4-[2-(4-methoxyphenyl)ethoxy]quinoline] | 90 to 100% | 90 to 100% | 90 to 100% | 0 to 19% | 90 to 100% | – | 0% | – | 100% | – | 100% | – | 0% | activity as miticides [7]: particularly excellent activity
3 | Fc1cccc2c(OCCCCCCCCOc3ccccc3)ccnc12 [Example 285, 8-fluoro-4-[(8-phenoxyoctyl)oxy]quinoline] | 0 to 19% | 0 to 19% | 0 to 19% | 0 to 19% | 0 to 19% | 0% | 0% | 40% | 0% | 80% | 0% | 0% | 0% | –
4 | Oc1ccc(CCNc2ccnc3c(F)cccc23)cc1 [Example 293, N-[2-(4-hydroxyphenyl)ethyl]-8-fluoro-4-quinoline] | 0 to 19% | 0 to 19% | 90 to 100% | 0 to 19% | 0 to 19% | 0% | 0% | 0% | 0% | 0% | 0% | 0% | 0% | –
5 | CC(C)(C)c1ccc(CCOc2ccnc3cc(Cl)ccc23)cc1 [Example 231, 7-chloro-4-[2-(4-(t-butyl)phenyl)ethoxy]quinoline] | 20 to 89% | 0 to 19% | 0 to 19% | 0 to 19% | 0 to 19% | 0% | 0% | 90% | 40% | 0% | 50% | 0% | 0% | activity as miticides [7]: particularly excellent activity
6 | Clc1ccccc1CCNc1ccnc2c(Cl)cccc12 [Example 115, N-[2-(2-chlorophenyl)ethyl]-8-chloro-4-quinolinamine] | – | – | – | – | – | – | – | – | – | – | – | – | – | POWD MDEW [1]: - (0-19% control at 400 ppm); RICE BLAST [2]: + (20-89% control at 400 ppm); LEAF RUST [3]: - (0-19% control at 400 ppm); GRAY MOLD [4]: - (0-19% control at 400 ppm); DOWN MDEW [5]: + (20-89% control at 400 ppm); mortality at 200 ppm ([6]; SAW, SM & MA RATE 200 PPM): 0%; mortality at 400 ppm ([6]; SAW, SM & MA RATE 400 PPM): 0%; mortality at 200 ppm ([7]; SAW, SM & MA RATE 200 PPM): 0%; mortality at 400 ppm ([7]; SAW, SM & MA RATE 400 PPM): 0%; mortality at 200 ppm ([8]; SAW, SM & MA RATE 200 PPM): 0%; mortality at 400 ppm ([8]; SAW, SM & MA RATE 400 PPM): 0%; mortality at 12 ppm ([9]; CRW RATE 12.00 PPM): 0%; mortality at 24 ppm ([9]; CRW RATE 24.00 PPM): 0%
7 | CC(CNc1ccnc2cc(Cl)ccc12)c1ccc(Cl)cc1 (stereo not drawn) [Example 283, 7-chloro-N-[2-(4-chlorophenyl)propyl]-4-quinolinamine] | 20 to 89% | 20 to 89% | 90 to 100% | 0 to 19% | 90 to 100% | 0% | 0% | 0% | 80% | 80% | 0% | 0% | 0% | –
8 | Cc1ccc(CCOc2cc(OCCc3ccc(C)cc3)c3cccc(F)c3n2)cc1 [Example 250, 8-fluoro-2,4-bis[2-(4-methylphenyl)ethoxy]quinoline] | 0 to 19% | 0 to 19% | 20 to 89% | 0 to 19% | 20 to 89% | – | 0% | – | 0% | – | 0% | – | 0% | –
9 | C=CCCCOc1ccnc2c(F)cccc12 [Example 267, 8-fluoro-4-(4-pentenoxy)quinoline] | 90 to 100% | 90 to 100% | 90 to 100% | 0 to 19% | 20 to 89% | 0% | 0% | 40% | 100% | 20% | 100% | 0% | 0% | –
10 | Cc1ccc(CCNc2ccnc3ccc(C)cc23)cc1 [Example 58, 6-methyl-N-[2-(4-methylphenyl)ethyl]-4-quinolinamine] | – | – | – | – | – | – | – | – | – | – | – | – | – | POWD MDEW [1]: - (0-19% control at 400 ppm); RICE BLAST [2]: - (0-19% control at 400 ppm); LEAF RUST [3]: + (20-89% control at 400 ppm); GRAY MOLD [4]: - (0-19% control at 400 ppm); DOWN MDEW [5]: +++ (90-100% control at 100 ppm); mortality at 400 ppm ([6]; SAW, SM & MA RATE 400 PPM): 0%; mortality at 400 ppm ([7]; SAW, SM & MA RATE 400 PPM): 0%; mortality at 400 ppm ([8]; SAW, SM & MA RATE 400 PPM): 0%; mortality at 24 ppm ([9]; CRW RATE 24.00 PPM): 0%
11 | CCCCOc1ccc(CCOc2ccnc3c(F)cccc23)cc1 [Example 278, 4-[2-(4-butoxyphenyl)ethoxy]-8-fluoroquinoline] | 90 to 100% | 90 to 100% | 90 to 100% | 0 to 19% | 90 to 100% | 0% | 100% | 60% | 0% | 90% | 0% | 0% | 0% | –
12 | Fc1cccc2c(NCCc3ccccc3Oc3ccccc3)ccnc12 [Example 63, 8-fluoro-N-[2-(2-phenoxyphenyl)ethyl]-4-quinolinamine] | – | – | – | – | – | – | – | – | – | – | – | – | – | POWD MDEW [1]: - (0-19% control at 400 ppm); RICE BLAST [2]: + (20-89% control at 400 ppm); LEAF RUST [3]: +++ (90-100% control at 100 ppm); GRAY MOLD [4]: - (0-19% control at 400 ppm); DOWN MDEW [5]: ++ (90-100% control at 400 ppm); mortality at 400 ppm ([6]; SAW, SM & MA RATE 400 PPM): 0%; mortality at 400 ppm ([7]; SAW, SM & MA RATE 400 PPM): 0%; mortality at 400 ppm ([8]; SAW, SM & MA RATE 400 PPM): 0%; mortality at 24 ppm ([9]; CRW RATE 24.00 PPM): 0%
13 | CC(C)(CNc1ccnc2c(F)cccc12)c1ccccc1 [Example 289, 8-fluoro-N-(2-methyl-2-phenylpropyl)-4-quinolinamine] | 20 to 89% | 90 to 100% | 90 to 100% | 0 to 19% | 90 to 100% | 0% | 0% | 0% | 0% | 0% | 0% | 0% | 0% | –
